{"source": "paper PMC9413514", "about": "“Accessing Lipophilicity and Biomimetic Chromatography Profile of Biologically Active Ingredients of Botanicals Used in the Treatment of Inflammatory Bowel Disease” (Pharmaceuticals, 2022)", "key": {"[1]": {"test_system": "α1-acid glycoprotein (AGP)", "test": "AGP-HPAC assay (plasma protein binding)", "assay_type": "in vitro ADME", "conditions": "Chiralpak-AGP, pH 7.4, 25 °C; spread is RSD in %", "excerpt": "(§1) The gradient retention times obtained by HSA-HPAC and AGP-HPAC assays were standardized using a calibration set of compounds with known percentage of plasma protein binding data and procedure described in our previously published study. […] This verification assured that the protein affinity indices obtained by HPAC assays depict not only unspecific generally lipophilicity-driven interactions, but also highly specific recognition forces responsible of enantioselectivity.\n(§2) Stock solutions of analytes and calibration standards were prepared by dissolving 10 mg of each solute in 10 mL of methanol and kept at 4 °C. Working solutions were freshly prepared at the beginning of each day by dilution of the stock solutions to 100 μg/mL with methanol for TLC measurements or mobile phase for HPLC measurements. Before use, the samples were sonicated (Elmasonic XtraTT, Elma Schmidbauer) for 10 min at 25 °C and all working solutions were filtered through 0.2 µm polyethersulfone filters (Obrnuta faza). To protect analytes from photodegradation, the amber glass HPLC vials were used.\n(§3) The binding of biologically active compounds to the plasma proteins was investigated using affinity chromatographic columns by ChromTech (Cedex, France) containing immobilized human serum albumin (HSA) (Chiralpak-HSA, length 50 mm, i.d. 4.6 mm, particle size 5 µm) and α1-acid glycoprotein (AGP) (Chiralpak-AGP, length 50 mm, i.d. 4.6 mm, particle size 5 µm) and Agilent HPLC 1100 instrument. The 20 mM potassium phosphate buffer with the pH adjusted to 7.4 and iso-propanol were used as mobile phase components A and B. Retention data were collected at 25.0 ± 0.1 °C using gradient program as follows: 0 min/0% B, 6 min/30% B, 15 min/30% B and 20 min/0% B. Injection volume was set at 10 µL and the measurements were carried out at 25.0 ± 0.1 °C with flow rate of 1.5 mL/min. The absorbance of the analytes during a chromatographic run was collected in the spectral range 200–400 nm, and the detection wavelength for each analyte was the one providing the maximum peak height."}, "[2]": {"biological_target": "T1, human serum albumin (HSA) (Homo sapiens, UniProt P02768)", "T1 construct": "purchased ChromTech (Cedex, France) Chiralpak-HSA", "T1 sequence (P02768 25-609)": "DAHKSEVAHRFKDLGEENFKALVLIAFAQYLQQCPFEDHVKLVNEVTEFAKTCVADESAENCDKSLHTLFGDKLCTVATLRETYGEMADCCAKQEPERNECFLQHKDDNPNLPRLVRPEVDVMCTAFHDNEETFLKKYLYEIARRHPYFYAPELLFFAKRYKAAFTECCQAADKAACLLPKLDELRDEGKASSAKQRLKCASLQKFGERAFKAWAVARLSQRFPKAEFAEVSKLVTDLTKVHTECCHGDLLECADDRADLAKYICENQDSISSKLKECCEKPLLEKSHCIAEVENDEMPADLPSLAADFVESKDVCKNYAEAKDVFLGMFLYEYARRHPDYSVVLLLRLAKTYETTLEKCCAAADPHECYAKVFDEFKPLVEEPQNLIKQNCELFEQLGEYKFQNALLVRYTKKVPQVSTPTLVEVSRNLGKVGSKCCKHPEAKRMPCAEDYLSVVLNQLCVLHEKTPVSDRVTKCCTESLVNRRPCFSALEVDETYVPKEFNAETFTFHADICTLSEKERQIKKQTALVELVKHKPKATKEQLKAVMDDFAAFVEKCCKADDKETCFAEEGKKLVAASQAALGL", "test": "HSA-HPAC assay (plasma protein binding)", "assay_type": "in vitro ADME", "conditions": "Chiralpak-HSA, pH 7.4, 25 °C; spread is RSD in %", "excerpt": "as §1, §2, §3"}, "[3]": {"test": "IAM-HPLC assay (lipophilicity, affinity to phospholipids)", "assay_type": "physicochemical", "conditions": "for logk0 IAM (HPLC lipophilicity index, intercept of linear equation): IAM P.C.DD2 column, PBS pH 7.4/methanol, extrapolated to zero organic modifier", "procedure": "IAM columns provide potential to simulate membrane permeability since the amphiphilic character of phospholipid functional groups plays an important role in IAM retention especially when charged molecules are analysed.\nas §2\nC18-HPLC assay was carried out at Agilent HPLC 1100 and Zorbax SB C18 chromatographic column (length 250 mm.6 mm, particle size 5 µm) by Agilent Technologies, while IAM-HPLC assay was conducted using IAM P.C.DD2 chromatographic column (length 50 mm, i.d. 3.0 mm, particle size […]) by Regis Technologies (Morton Grove, IL, USA). Retention data were collected at 25.0 ± 0.1 °C using isocratic method working with mobile phases, mixing the respective amounts of PBS (10 mM, pH 7.4) and methanol from 35% to 80% of organic solvent in 5% increment. Each mobile phase was shaken vigorously and filtrated through membrane filter, no. 66, diameter 47 mm, pore size 0.45 µm by Supelco and degassed by sonication 5 min before use. The injection volume was set at 10 µL, and the measurements were carried out at flow rate 1.0 mL/min. Natrium nitrate solution (0.1 mg/mL in mobile phase) was used as the marker of dead-time. The absorbance of the analytes during a chromatographic run was collected in the spectral range of 200–400 nm, and the detection wavelength for each analyte was the one providing the maximum peak height."}}, "data": [{"compound": "O=C(C=Cc1ccc(O)cc1)CC(=O)C=Cc1ccc(O)cc1", "note": "[Bisdemetoxycurcumin, bisdemetoxycurcumin]", "values": [{"measurement": "AGP Binding ± RSD (%) (n = 3)", "setting": "[1]", "result": "83.14 ± 1.15", "unit": "%"}, {"measurement": "HSA Binding ± RSD (%) (n = 3)", "setting": "[2]", "result": "98.37 ± 0.10", "unit": "%"}, {"measurement": "logk0 IAM (HPLC lipophilicity index, intercept of linear equation)", "setting": "[3]", "result": "y = −0.0568 x + 4.6386"}]}, {"compound": "O=C(/C=C/C=C/c1ccc2c(c1)OCO2)N1CCCCC1", "note": "[Piperine, piperine]", "values": [{"measurement": "AGP Binding ± RSD (%) (n = 3)", "setting": "[1]", "result": "71.98 ± 1.33", "unit": "%"}, {"measurement": "HSA Binding ± RSD (%) (n = 3)", "setting": "[2]", "result": "95.48 ± 0.41", "unit": "%"}, {"measurement": "logk0 IAM (HPLC lipophilicity index, intercept of linear equation)", "setting": "[3]", "result": "y = −0.0512 x + 3.2026"}]}, {"compound": "C=C1CC[C@@H]2[C@](C)(CO)[C@H](O)CC[C@@]2(C)[C@@H]1C/C=C1/C(=O)OC[C@H]1O", "note": "[Andrographolide, andrographolide]", "values": [{"measurement": "AGP Binding ± RSD (%) (n = 3)", "setting": "[1]", "result": "37.13 ± 1.11", "unit": "%"}, {"measurement": "HSA Binding ± RSD (%) (n = 3)", "setting": "[2]", "result": "80.07 ± 0.74", "unit": "%"}, {"measurement": "logk0 IAM (HPLC lipophilicity index, intercept of linear equation)", "setting": "[3]", "result": "y = −0.0464 x + 2.2763"}]}, {"compound": "COc1cc(/C=C/C(=O)CC(=O)/C=C/c2ccc(O)cc2)ccc1O", "note": "[Demetoxycurcumin, demetoxycurcumin]", "values": [{"measurement": "AGP Binding ± RSD (%) (n = 3)", "setting": "[1]", "result": "82.92 ± 1.15", "unit": "%"}, {"measurement": "HSA Binding ± RSD (%) (n = 3)", "setting": "[2]", "result": "97.97 ± 0.35", "unit": "%"}, {"measurement": "logk0 IAM (HPLC lipophilicity index, intercept of linear equation)", "setting": "[3]", "result": "y = −0.0555 x + 4.4229"}]}, {"compound": "C=C1CC[C@@H]2[C@](C)(CO[C@@H]3O[C@H](CO)[C@@H](O)[C@H](O)[C@H]3O)CCC[C@@]2(C)[C@@H]1CCC1=CCOC1=O", "note": "[Neoandrographolide, neoandrographolide]", "values": [{"measurement": "AGP Binding ± RSD (%) (n = 3)", "setting": "[1]", "result": "64.95 ± 0.41", "unit": "%"}, {"measurement": "HSA Binding ± RSD (%) (n = 3)", "setting": "[2]", "result": "87.71 ± 0.41", "unit": "%"}, {"measurement": "logk0 IAM (HPLC lipophilicity index, intercept of linear equation)", "setting": "[3]", "result": "y = −0.0620 x + 3.4572"}, {"measurement": "difference in logk0 IAM values versus andrographolide", "setting": "[3]; compared to andrographolide", "result": 1.18, "unit": "units"}]}]}
